Experiments:
Assay type in all cases: in vivo
[1] = tested on: ducksalad (Heteranthera limosa); test: Test B flooded paddy test, visual plant response rating 0-100; details: 250 g ai/ha, Flood, applied to paddy water, evaluated after 13 days
How it was run: (§1)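 Plants were grown to the 2-leaf stage, then pots were flooded to 3 cm above the soil and compound was applied directly to the paddy water, with that depth kept throughout.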

[2] = tested on: sedge, umbrella (small-flower umbrella sedge, Cyperus difformis); test: as above; details: 250 g ai/ha, Flood, applied to paddy water, evaluated after 13 days
How it was run: as §1

rice (Oryza sativa) = test: as above; details: 250 g ai/ha, Flood, applied to paddy water, evaluated after 13 days
How it was run: as §1

[3] = tested on: barnyardgrass (Echinochloa crusgalli); test: as above; details: 250 g ai/ha, Flood, applied to paddy water, evaluated after 13 days
How it was run: as §1

[4] = tested on: horseweed (Erigeron canadensis); test: Test A postemergence application, visual injury rating 0-100
Text: (§2) Seeds of plant species selected from barnyardgrass (Echinochloa crus-galli), blackgrass (Alopecurus myosuroides), corn (Zea mays), foxtail, giant (giant foxtail, Setaria faberi), green foxtail (Setaria viridis), goosegrass (Eleusine indica), kochia (Bassia scoparia), oat, wild (wild oat, Avena fatua), palmer (palmer amaranth, palmer pigweed, Amaranthus palmeri), ragweed (common ragweed, Ambrosia artemisiifolia), ryegrass, Italian (italian ryegrass, Lolium multiflorum), soybean (Glycine max) and wheat (Triticum aestivum) were planted into a blend of loam soil and sand and treated preemergence with a directed soil spray using test chemicals formulated in a non-phytotoxic solvent mixture which included a surfactant.
(§3) At the same time, plants selected from these crops and weed species and also galium (catchweed bedstraw, Galium aparine) and horseweed (Erigeron canadensis) were planted in pots containing the same blend of loam soil and sand and treated with postemergence applications of test chemicals formulated in the same manner. Plants ranged in height from 2 to 10 cm and were in the one- to two-leaf stage for the postemergence treatment. Treated plants and untreated controls were maintained in a greenhouse for 10 days, after which time all treated plants were compared to untreated controls and visually evaluated for injury. Plant response ratings, summarized in Table A, are based on a 0 to 100 scale where 0 is no effect and 100 is complete control. A dash (-) response means no test result.

[5] = tested on: oat, wild (wild oat, Avena fatua); test: as above
Text: as §2, §3

[6] = tested on: ragweed (common ragweed, Ambrosia artemisiifolia); test: as above
Text: as §2, §3

[7] = tested on: blackgrass (Alopecurus myosuroides); test: as above
Text: as §2, §3

[8] = tested on: palmer (palmer amaranth, palmer pigweed, Amaranthus palmeri); test: as above
Text: as §2, §3

corn (Zea mays) [9] = test: as above
Text: as §2, §3

soybean (Glycine max) [10] = test: as above
Text: as §2, §3

[11] = tested on: ryegrass, Italian (italian ryegrass, Lolium multiflorum); test: as above
Text: as §2, §3

[12] = tested on: wheat (Triticum aestivum); test: as above
Text: as §2, §3

kochia (Bassia scoparia) [13] = test: as above
Text: as §2, §3

[14] = tested on: barnyardgrass (Echinochloa crus-galli); test: as above
Text: as §2, §3

[15] = tested on: green foxtail (Setaria viridis); test: as above
Text: as §2, §3

[16] = tested on: oat, wild (wild oat, Avena fatua); test: Test A preemergence soil spray, visual injury rating 0-100; details: 10 days
How it was run: (§4)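 Compounds formulated in a non-phytotoxic solvent with surfactant are sprayed onto soil of freshly planted loam-sand pots ahead of emergence, or onto emerged plants 2-10 cm tall. After a 10-day greenhouse period, each species is scored visually for injury against untreated controls.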

[17] = tested on: ragweed (common ragweed, Ambrosia artemisiifolia); test: as above; details: 10 days
How it was run: as §4

[18] = tested on: blackgrass (Alopecurus myosuroides); test: as above; details: 10 days
How it was run: as §4

[19] = tested on: palmer (palmer amaranth, palmer pigweed, Amaranthus palmeri); test: as above; details: 10 days
How it was run: as §4

corn (Zea mays) [20] = test: as above; details: 10 days
How it was run: as §4

soybean (Glycine max) [21] = test: as above; details: 10 days
How it was run: as §4

[22] = tested on: ryegrass, Italian (italian ryegrass, Lolium multiflorum); test: as above; details: 10 days
How it was run: as §4

[23] = tested on: wheat (Triticum aestivum); test: as above; details: 10 days
How it was run: as §4

kochia (Bassia scoparia) [24] = test: as above; details: 10 days
How it was run: as §4

[25] = tested on: barnyardgrass (Echinochloa crus-galli); test: as above; details: 10 days
How it was run: as §4

[26] = tested on: green foxtail (Setaria viridis); test: as above; details: 10 days
How it was run: as §4

[27] = 62 g ai/ha, postemergence, 10 days, 0 = no effect, 100 = complete control
[28] = Postemergence, 16 g ai/ha, greenhouse 10 days, 0 no effect, 100 complete control
[29] = 62 g ai/ha, 0 = no effect, 100 = complete control

CC(C)OC(=O)C1=CCC(NC(=O)C2(C)CN(c3cc(Cl)cc(Cl)c3)C(=O)O2)C1 (centres unmarked) [Compound 106]
Plant response rating, Ducksalad (0 to 100 scale, 0 is no effect and 100 is complete control) [1]: 85
Plant response rating, Sedge, Umbrella (0 to 100 scale, 0 is no effect and 100 is complete control) [2]: 98
Plant response rating, Rice (0 to 100 scale, 0 is no effect and 100 is complete control) (rice (Oryza sativa)): 10
Plant response rating, Barnyardgrass (0 to 100 scale, 0 is no effect and 100 is complete control) [3]: 65
Horseweed plant response rating (0-100) [4, 27]: 0
Horseweed plant response rating (0 to 100 scale) [4, 28]: 0
Oat, Wild plant response rating (0-100) [5, 27]: 0
Oat, Wild plant response rating (0 to 100 scale) [5, 28]: 0
Ragweed plant response rating (0-100) [6, 27]: 0
Ragweed plant response rating (0 to 100 scale) [6, 28]: 0
Blackgrass plant response rating (0-100) [7, 27]: 0
Blackgrass plant response rating (0 to 100 scale) [7, 28]: 0
Pigweed, Palmer plant response rating (0-100) [8, 27]: 0
Pigweed, Palmer plant response rating (0 to 100 scale) [8, 28]: 0
Corn plant response rating (0-100) (corn (Zea mays) [9]; [27]): 0
Corn plant response rating (0 to 100 scale) (corn (Zea mays) [9]; [28]): 0
Soybean plant response rating (0-100) (soybean (Glycine max) [10]; [27]): 0
Soybean plant response rating (0 to 100 scale) (soybean (Glycine max) [10]; [28]): 0
Ryegrass, Italian plant response rating (0-100) [11, 27]: 0
Ryegrass, Italian plant response rating (0 to 100 scale) [11, 28]: 0
Wheat plant response rating (0-100) [12, 27]: 0
Wheat plant response rating (0 to 100 scale) [12, 28]: 0
Kochia plant response rating (0-100) (kochia (Bassia scoparia) [13]; [27]): 0
Kochia plant response rating (0 to 100 scale) (kochia (Bassia scoparia) [13]; [28]): 0
Barnyardgrass plant response rating (0-100) [14, 27]: 0
Barnyardgrass plant response rating (0 to 100 scale) [14, 28]: 0
Foxtail, Green plant response rating (0-100) [15, 27]: 0
Foxtail, Green plant response rating (0 to 100 scale) [15, 28]: 0
Oat, Wild plant response rating ([16]; 16 g ai/ha, 0 to 100 scale): 0
Oat, Wild plant response rating (0-100) [16, 29]: 0
Ragweed plant response rating ([17]; 16 g ai/ha, 0 to 100 scale): 0
Ragweed plant response rating (0-100) [17, 29]: 0
Blackgrass plant response rating ([18]; 16 g ai/ha, 0 to 100 scale): 0
Blackgrass plant response rating (0-100) [18, 29]: 0
Pigweed, Palmer plant response rating ([19]; 16 g ai/ha, 0 to 100 scale): 0
Pigweed, Palmer plant response rating (0-100) [19, 29]: 0
Corn plant response rating (corn (Zea mays) [20]; 16 g ai/ha, 0 to 100 scale): 0
Corn plant response rating (0-100) (corn (Zea mays) [20]; [29]): 0
Soybean plant response rating (soybean (Glycine max) [21]; 16 g ai/ha, 0 to 100 scale): 0
Soybean plant response rating (0-100) (soybean (Glycine max) [21]; [29]): 0
Ryegrass, Italian plant response rating ([22]; 16 g ai/ha, 0 to 100 scale): 0
Ryegrass, Italian plant response rating (0-100) [22, 29]: 0
Wheat plant response rating ([23]; 16 g ai/ha, 0 to 100 scale): 0
Wheat plant response rating (0-100) [23, 29]: 0
Kochia plant response rating (kochia (Bassia scoparia) [24]; 16 g ai/ha, 0 to 100 scale): 0
Kochia plant response rating (0-100) (kochia (Bassia scoparia) [24]; [29]): 0
Barnyardgrass plant response rating ([25]; 16 g ai/ha, 0 to 100 scale): 0
Barnyardgrass plant response rating (0-100) [25, 29]: 0
Foxtail, Green plant response rating ([26]; 16 g ai/ha, 0 to 100 scale): 0
Foxtail, Green plant response rating (0-100) [26, 29]: 0
